Laboratory results published in patent US8802664B2 (Bioproject, priority 2010, dated 2014).
pKi: −log10 of the molar value.

molecular target: T1, human H4 receptor (Homo sapiens, UniProt Q9H3N8); test: [3H]Histamine binding on membranes of CHO cells stably expressing human H4 receptor; conditions: not given
T1 construct: expressed in transfected cells
Procedure: CHO cells stably expressing human H4 receptor were grown until sub-confluence and centrifuged at 300 g 15 minutes at 4° C. Pellets were resuspended in buffer I Tris-HCl 50 mM, MgCl2 10 mM, NaCl 140 mM, pH=7.4 supplemented by a 1/50 dilution of a mix of protease inhibitors. The obtained suspension is stirred gently and submitted to a […] exerted through a syringe. The cell lysate is then centrifuged at 300 g 15 minutes at 4° C. in order to eliminate nucleus and cell scraps. The obtained supernatant was then centrifuged at 48000 g for 30 minutes at 4° C. The final pellet is resuspended in buffer I with a potter homogenizer. Aliquots were frozen in liquid nitrogen and stored until use at −80° C. Protein content is measured by the Bradford method.
Defreezed membranes were diluted at a final concentration of 20 μg/180 μL/well in a binding buffer containing 50 mM Tris/HCl, 0.5 mM EDTA, pH=7.4 and distributed in 96 well polystyrene microplate. [^3H] […] Non specific binding was estimated in the presence of 10 μM BP1.2404 (JNJ 7777120). The reaction was terminated by filtration through GF/B filters pre-soaked 2 hours at 4° C. in […]. Filters were rinsed 3 times with 250 μl of ice cold incubation binding buffer.
The filter-bound radioactivity was measured in a liquid scintillation counter Microbeta TRILUX® with 50 μl of scintillation fluid.
The hH4 binding investigated by use of [^3H]

| Ki or IC50 activity class | SMILES |
| --- | --- |
| < 300 nM | CN1CCC(OC(c2cccc(CCC(=O)OC(C)(C)C)c2)c2nc3ccccc3s2)CC1 (centres unmarked) [Example 208, 3-{3-[benzothiazol-2-yl(1-methylpiperidin-4-yloxy)methyl]phenyl}propionic acid tert-butyl ester] |
| < 30 nM | COc1cccc(C(OC2CCN(C)CC2)c2nc3ccccc3s2)c1 (centres unmarked) [Example 11, 2-[(3-methoxyphenyl)(1-methylpiperidin-4-yloxy)methyl]benzothiazole] |
| < 300 nM | CN1CCC(OC(c2cccc(-c3ccc(NC(=O)OC(C)(C)C)cc3)c2)c2nc3ccccc3s2)CC1 (centres unmarked) [Example 143, {3′-[benzothiazol-2-yl(1-methylpiperidin-4-yloxy)methyl]biphenyl-4-yl}carbamic acid tert-butyl ester] |
| < 1000 nM | CN1CCC(OC(c2cccc(OCCNCC(=O)OC(C)(C)C)c2)c2nc3ccccc3[nH]2)CC1 (centres unmarked) [Example 361, (2-{3-[(1H-benzimidazol-2-yl)(1-methylpiperidin-4-yloxy)methyl]phenoxy}ethylamino)acetic acid tert-butyl ester] |
| < 300 nM | CN1CCC(OC(c2cccc(SCCCCO)c2)c2nc3ccccc3[nH]2)CC1 (centres unmarked) [Example 248, 4-{3-[(1H-benzimidazol-2-yl)(1-methylpiperidin-4-yloxy)methyl]phenylsulfanyl}butan-1-ol] |
| < 1000 nM | CN1CCC(OC(c2ccc(O)cc2)c2nc3ccccc3[nH]2)CC1 (centres unmarked) [Example 597] |
| < 300 nM | CN1CCC(OC(c2cccc(C#CC3CN(C(=N)N)C3)c2)c2nc3ccccc3[nH]2)CC1 (centres unmarked) [Example 426, 3-{3-[(1H-benzimidazol-2-yl)(1-methylpiperidin-4-yloxy)methyl]phenylethynyl}azetidine-1-carboxamidine] |
| < 300 nM | CSCc1cccc(C(OC2CCN(C)CC2)c2nc3ccccc3[nH]2)c1 (centres unmarked) [Example 528, 2-[(1-methylpiperidin-4-yloxy)(3-methylsulfanylmethylphenyl)methyl]-1H-benzimidazole] |
| < 300 nM | CN1CCC(OC(c2cccc(SCCn3nccn3)c2)c2nc3ccccc3s2)CC1 (centres unmarked) [Example 240, 2-{(1-methylpiperidin-4-yloxy)[3-(2-[1,2,3]triazol-2-yl-ethylsulfanyl)phenyl]methyl}benzothiazole] |
| < 300 nM | CCOCCOc1cccc(C(NC2CCN(C)CC2)c2nc3ccccc3[nH]2)c1 (centres unmarked) [Example 134, {(1H-benzimidazol-2-yl)[3-(2-ethoxyethoxy)phenyl]methyl}(1-methylpiperidin-4-yl)amine] |
| < 300 nM | CN1CCC(OC(c2cccc(CCCCCCNC(=N)N)c2)c2nc3ccccc3[nH]2)CC1 (centres unmarked) [Example 355, N-(6-{3-[(1H-benzimidazol-2-yl)(1-methylpiperidin-4-yloxy)methyl]phenyl}hexyl)guanidine] |
| < 300 nM | CN1CCC(OC(c2nc3ccccc3[nH]2)c2cc(Cl)ccc2F)CC1 (centres unmarked) [Example 496] |
| < 300 nM | CN1CCC(OC(c2cccc(C#CCCCCNC(=N)N)c2)c2nc3ccccc3[nH]2)CC1 (centres unmarked) [Example 346, N-(6-{3-[(1H-benzimidazol-2-yl)(1-methylpiperidin-4-yloxy)methyl]phenyl}hex-5-ynyl)guanidine] |
| < 300 nM | CSc1cccc(-c2cccc(C(OC3CCN(C)CC3)c3nc4ccccc4[nH]3)c2)c1 (centres unmarked) [Example 116, 2-[(1-methylpiperidin-4-yloxy)(3′-methylsulfanylbiphenyl-3-yl)methyl]-1H-benzimidazole] |
| < 300 nM | CN1CCC(OC(c2cccc(OS(=O)(=O)C(F)(F)F)c2)c2nc3ccccc3s2)CC1 (centres unmarked) [Example 71, trifluoromethanesulfonic acid 3-[benzothiazol-2-yl(1-methylpiperidin-4-yloxy)methyl]phenyl ester] |

Second part, the compound before the results:

| SMILES | Ki or IC50 activity class |
| --- | --- |
| CN1CCC(OC(c2cccc(C#CCNC(=N)NC(=O)OC(C)(C)C)c2)c2nc3ccccc3[nH]2)CC1 (centres unmarked) [Example 336, N-tert-butoxycarbonyl-N′-(3-{3-[(1H-benzimidazol-2-yl)(1-methylpiperidin-4-yloxy)methyl]phenyl}prop-2-ynyl)guanidine] | < 300 nM |
| CN1CCC(OC(c2cccc(SCCCCCN)c2)c2nc3ccccc3s2)CC1 (centres unmarked) [Example 305, 5-{3-[benzothiazol-2-yl(1-methylpiperidin-4-yloxy)methyl]phenylsulfanyl}pentylamine] | < 30 nM |
| CN1CCC(OC(c2cccc(OCCCCN3CCCCC3)c2)c2nc3ccccc3[nH]2)CC1 (centres unmarked) [Example 333, 2-{(1-methylpiperidin-4-yloxy)[3-(4-piperidin-1-yl-butoxy)phenyl]methyl}-1H-benzimidazole] | < 300 nM |
| CN1CCC(OC(c2cccs2)c2nc3ccccc3s2)CC1 (centres unmarked) [Example 13, 2-[(1-methylpiperidin-4-yloxy)thiophen-2-ylmethyl]benzothiazole] | < 300 nM |
| CN1CCC(OC(c2cccc(SCCCCN)c2)c2nc3cc(F)c(F)c(F)c3[nH]2)CC1 (centres unmarked) [Example 493] | < 30 nM |
| CN1CCC(OC(c2cccc(C(F)(F)F)c2)c2nc3ccccc3s2)CC1 (centres unmarked) [Example 31, 2-[(1-methylpiperidin-4-yloxy)(3-trifluoromethylphenyl)methyl]benzothiazole] | < 30 nM |
| CCCCOc1cccc(C(OC2CCN(C)CC2)c2nc3ccccc3s2)c1 (centres unmarked) [Example 92, 2-[(3-butoxyphenyl)(1-methylpiperidin-4-yloxy)methyl]benzothiazole] | < 300 nM |
| CN1CCC(OC(c2ccc3c(c2)OC(F)(F)O3)c2nc3ccccc3[nH]2)CC1 (centres unmarked) [Example 521] | < 1000 nM |
| CN1CCC(OC(c2cccc(CCCCCNC(=N)N)c2)c2nc3ccccc3s2)CC1 (centres unmarked) [Example 365, N-(5-{3-[benzothiazol-2-yl(1-methylpiperidin-4-yloxy)methyl]phenyl}pentyl)guanidine] | < 300 nM |
| CCSc1ccc(F)c(C(OC2CCN(C)CC2)c2nc3ccccc3[nH]2)c1F (centres unmarked) [Example 520] | < 300 nM |
| CN1CCC(OC(c2cccc(SCCN)c2)c2nc3cc(F)ccc3[nH]2)CC1 (centres unmarked) [Example 428, 2-{3-[(5-fluoro-1H-benzimidazol-2-yl)(1-methylpiperidin-4-yloxy)methyl]phenylsulfanyl}ethylamine] | < 300 nM |
| CN1CCC(OC(c2cccc(SCCCCCCO)c2)c2nc3ccccc3[nH]2)CC1 (centres unmarked) [Example 295, 6-{3-[(1H-benzimidazol-2-yl)(1-methylpiperidin-4-yloxy)methyl]phenylsulfanyl}hexan-1-ol] | < 300 nM |
| CN1CCC(OC(c2cccc(C#CCN)c2)c2nc3ccccc3s2)CC1 (centres unmarked) [Example 296, 3-{3-[benzothiazol-2-yl(1-methylpiperidin-4-yloxy)methyl]phenyl}prop-2-ynylamine] | < 300 nM |
| CN1CCC(OC(c2cccc(OCCCO)c2)c2nc3ccccc3s2)CC1 (centres unmarked) [Example 258, 3-{3-[benzothiazol-2-yl(1-methylpiperidin-4-yloxy)methyl]phenoxy}propan-1-ol] | < 300 nM |
| CN1CCC(OC(c2cccc(SC[C@H]3C[C@H]3CN)c2)c2nc3ccccc3[nH]2)CC1 (some centres unmarked) [Example 494] | < 30 nM |

same assay, conditions: human H4 receptor; evaluated in the GTPγ[35S] assay or in the [3H]histamine binding assay (not stated which per compound); Ki or IC50 class

| Ki or IC50 activity class | SMILES |
| --- | --- |
| < 30 nM | CN1CCC(OC(c2cccc(N3CCC(F)C3)c2)c2nc3ccccc3s2)CC1 (centres unmarked) [Example 454] |

same assay, conditions: read-out: Activity (Ki or IC50)

| SMILES | pKi |
| --- | --- |
| CN1CCC(OC(c2cccc(SCCNC(=N)NC(=O)C(C)(C)C)c2)c2nc3ccccc3[nH]2)CC1 (centres unmarked) [Example 446] | > 6.52 |
